Data published in patent US7244727B2, “Fused bicyclic nitrogen-containing heterocycles” (Japan Tobacco Inc., priority 2002, dated 2007).

Experiments:
[1] = target: T1, human DGAT1 (Homo sapiens, UniProt O75907); experiment: DGAT Scintillation Proximity Assay (SPA) with membranes of insect cells expressing human flagtag DGAT1; type: biochemical; settings: read-out: hDGAT1 IC50
T1 construct: made in house; host or cells: insect cells (sf9, sf21 or High Five) infected with baculovirus; total cell membranes
T1 sequence (O75907 1-488): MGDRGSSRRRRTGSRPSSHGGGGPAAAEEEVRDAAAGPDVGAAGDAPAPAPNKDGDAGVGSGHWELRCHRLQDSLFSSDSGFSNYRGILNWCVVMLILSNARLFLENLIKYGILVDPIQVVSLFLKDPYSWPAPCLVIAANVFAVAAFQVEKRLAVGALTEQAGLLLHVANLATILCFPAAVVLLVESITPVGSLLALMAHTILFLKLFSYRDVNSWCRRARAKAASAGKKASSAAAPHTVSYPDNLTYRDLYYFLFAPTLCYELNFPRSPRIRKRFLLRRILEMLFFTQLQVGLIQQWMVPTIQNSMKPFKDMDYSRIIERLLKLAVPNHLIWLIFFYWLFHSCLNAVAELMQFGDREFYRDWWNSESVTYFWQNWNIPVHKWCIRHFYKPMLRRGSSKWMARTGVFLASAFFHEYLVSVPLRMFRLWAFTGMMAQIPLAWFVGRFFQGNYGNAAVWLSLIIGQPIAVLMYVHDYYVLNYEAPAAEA
Procedure, shortened: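 Membranes (0.2 μg/well) from insect cells expressing human flag-tagged DGAT1 incubated with 10 μM compound and 200 μM dioleoyl glycerol substrate; mercuric chloride as inhibition control. Reaction stopped with WGA SPA beads in mercuric chloride, overnight bead coupling, then scintillation proximity signal read.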

melting point | IC50 [1] [nM] | SMILES
230 to 231 °C | 10 to 100 | Cc1ccc(S(=O)(=O)NCC[C@H]2CC[C@H](c3ccc(C4=Nc5c(N)ncnc5OC4(C)C)cc3)CC2)cc1 [Example 2-175]
196 to 198 °C | 10 to 100 | CC1(C)Oc2ncnc(N)c2N=C1c1ccc([C@H]2CC[C@H](CCNC(=O)CO)CC2)cc1 [Example 2-176]
198 to 200 °C | 10 to 100 | CCCNC(=O)CC[C@H]1CC[C@H](c2ccc(C3=Nc4c(N)ncnc4OC3(C)C)cc2)CC1 [Example 2-177]
143 to 160 °C | 10 to 100 | CC1(C)Oc2ncnc(N)c2N=C1c1ccc([C@H]2CC[C@H](CCC(=O)N3CCC[C@H]3CO)CC2)cc1 [Example 2-178]
168 to 170 °C | 10 to 100 | CN(CCO)C(=O)CC[C@H]1CC[C@H](c2ccc(C3=Nc4c(N)ncnc4OC3(C)C)cc2)CC1 [Example 2-179]
200 to 202 °C | 10 to 100 | CC1(C)Oc2ncnc(N)c2N=C1c1ccc([C@H]2CC[C@H](CCC(=O)N3CCC(O)CC3)CC2)cc1 [Example 2-180]
167 to 169 °C | 10 to 100 | CC1(C)Oc2ncnc(N)c2N=C1c1ccc([C@H]2CC[C@H](CCNC(=O)[C@@H]3CCCN3)CC2)cc1 [Example 2-182]
201 to 203 °C | 10 to 100 | CC1(C)Oc2ncnc(N)c2N=C1c1ccc([C@H]2CC[C@H](CCNC(=O)[C@@H]3C[C@@H](O)CN3)CC2)cc1 [Example 2-183]
> 250 °C | 10 to 100 | Cc1csc(NCC[C@H]2CC[C@H](c3ccc(C4=Nc5c(N)ncnc5OC4(C)C)cc3)CC2)n1 [Example 2-184]
193 to 194 °C | 10 to 100 | Cc1ncc(CC[C@H]2CC[C@H](c3ccc(C4=Nc5c(N)ncnc5OC4(C)C)cc3)CC2)[nH]1 [Example 2-185]
200 to 201 °C | 10 to 100 | CN(C)C(=O)CC[C@H]1CC[C@H](c2ccc(C3=Nc4c(N)ncnc4OC3(C)C)cc2)CC1 [Example 2-186]
206 to 208 °C | < 10 | CC(C)NC(=O)CC[C@H]1CC[C@H](c2ccc(C3=Nc4c(N)ncnc4OC3(C)C)cc2)CC1 [Example 2-187]
173 to 175 °C | 10 to 100 | CCN(C)C(=O)CC[C@H]1CC[C@H](c2ccc(C3=Nc4c(N)ncnc4OC3(C)C)cc2)CC1 [Example 2-188]
192 to 194 °C | 10 to 100 | CCN(CC)C(=O)CC[C@H]1CC[C@H](c2ccc(C3=Nc4c(N)ncnc4OC3(C)C)cc2)CC1 [Example 2-189]
210 to 212 °C | 10 to 100 | CCCN(C)C(=O)CC[C@H]1CC[C@H](c2ccc(C3=Nc4c(N)ncnc4OC3(C)C)cc2)CC1 [Example 2-190]
> 250 °C | < 10 | Cc1nc(N)c2c(n1)OC(C)(C)C(c1ccc([C@H]3CC[C@H](CCC(=O)O)CC3)cc1)=N2 [Example 2-191]
> 250 °C | < 10 | Cc1nc(N)c2c(n1)OC(C)(C)C(c1ccc([C@H]3CC[C@H](CCC(=O)NS(C)(=O)=O)CC3)cc1)=N2 [Example 2-192]
> 240 °C | 10 to 100 | Cc1nc(N)c2c(n1)OC(C)(C)C(c1ccc([C@H]3CC[C@H](CCC(=O)NC(C)(C)CO)CC3)cc1)=N2 [Example 2-193]
230 to 231 °C | 10 to 100 | Cc1nc(N)c2c(n1)OC(C)(C)C(c1ccc([C@H]3CC[C@H](CCC(=O)N4C[C@@H](O)[C@@H](O)C4)CC3)cc1)=N2 [Example 2-194]
250 °C (dec.) | 10 to 100 | Cc1nc(N)c2c(n1)OC(C)(C)C(c1ccc([C@H]3CC[C@H](CCc4nc(=O)o[nH]4)CC3)cc1)=N2 [Example 2-195]
211 °C (dec.) | 10 to 100 | Cc1nc(N)c2c(n1)OC(C)(C)C(c1ccc([C@H]3CC[C@H](CCc4nc(=O)s[nH]4)CC3)cc1)=N2 [Example 2-196]
250 °C (dec.) | 10 to 100 | Cc1nc(N)c2c(n1)OC(C)(C)C(c1ccc([C@H]3CC[C@H](CCc4nc(=O)on4C)CC3)cc1)=N2 [Example 2-197]
> 250 °C | 10 to 100 | Cc1nc(N)c2c(n1)OC(C)(C)C(c1ccc([C@H]3CC[C@H](CCc4nc(=O)[nH]n4C)CC3)cc1)=N2 [Example 2-198]
> 250 °C | < 10 | Cc1nc(N)c2c(n1)OC(C)(C)C(c1ccc([C@H]3CC[C@H](CCc4nn[nH]n4)CC3)cc1)=N2 [Example 2-200]
> 250 °C | < 10 | Cc1nc(N)c2c(n1)OC(C)(C)C(c1ccc([C@H]3CC[C@H](CCC(=O)Nc4nn[nH]n4)CC3)cc1)=N2 [Example 2-201]

melting point | IC50 [1] [nM] | SMILES
> 225 °C | 10 to 100 | Cc1nc(N)c2c(n1)OC(C)(C)C(c1ccc([C@H]3CC[C@H](CC(C)(C)C(=O)O)CC3)cc1)=N2 [Example 2-202]
235 to 237 °C | 10 to 100 | CC1(C)Oc2ncnc(N)c2N=C1c1ccc([C@H]2CC[C@H](C(=O)NCCO)CC2)cc1 [Example 2-203]
> 250 °C | 10 to 100 | CC1(C)Oc2ncnc(N)c2N=C1c1ccc([C@H]2CC[C@H](C(N)=O)CC2)cc1 [Example 2-204]
> 250 °C | 10 to 100 | CC1(C)Oc2ncnc(N)c2N=C1c1ccc([C@H]2CC[C@H](C(=O)NCC(=O)O)CC2)cc1 [Example 2-205]
> 250 °C | 10 to 100 | CC1(C)Oc2ncnc(N)c2N=C1c1ccc([C@H]2CC[C@H](C(=O)N3CCC(C(=O)O)CC3)CC2)cc1 [Example 2-207]
193 to 194 °C | 10 to 100 | CC1(C)Oc2ncnc(N)c2N=C1c1ccc([C@H]2CC[C@H](C(=O)N3CCCC3C(=O)O)CC2)cc1 (some centres unmarked) [Example 2-208]
> 250 °C | 10 to 100 | CC(=O)N[C@H]1CC[C@H](c2ccc(C3=Nc4c(N)ncnc4OC3(C)C)cc2)CC1 [Example 2-209]
> 250 °C | 10 to 100 | CC1(C)Oc2ncnc(N)c2N=C1c1ccc([C@H]2CC[C@H](NS(C)(=O)=O)CC2)cc1 [Example 2-210]
> 250 °C | 10 to 100 | CC(NC(=O)[C@H]1CC[C@H](c2ccc(C3=Nc4c(N)ncnc4OC3(C)C)cc2)CC1)C(=O)O (some centres unmarked) [Example 2-211]
> 250 °C | < 10 | CC(C)(NC(=O)[C@H]1CC[C@H](c2ccc(C3=Nc4c(N)ncnc4OC3(C)C)cc2)CC1)C(=O)O [Example 2-212]
> 250 °C | 10 to 100 | CC1(C)Oc2ncnc(N)c2N=C1c1ccc([C@H]2CC[C@H](C(=O)NC(CO)C(=O)O)CC2)cc1 (some centres unmarked) [Example 2-213]
> 250 °C | < 10 | CN(CC(=O)O)C(=O)[C@H]1CC[C@H](c2ccc(C3=Nc4c(N)ncnc4OC3(C)C)cc2)CC1 [Example 2-214]
225 to 227 °C | 10 to 100 | CC1(C)Oc2ncnc(N)c2N=C1c1ccc([C@H]2CC[C@H](CN3C(=O)c4ccccc4C3=O)CC2)cc1 [Example 2-217]
212 °C | 10 to 100 | CC1(C)Oc2ncnc(N)c2N=C1c1ccc([C@H]2CC[C@H](NS(N)(=O)=O)CC2)cc1 [Example 2-218]
243 to 248 °C | 10 to 100 | CN(CC(=O)O)C(=O)[C@H]1CC[C@H](c2ccc(C3=Nc4c(N)ncnc4OC3(C)C)cc2)CC1 [Example 2-219]
> 250 °C | > 100 | CC1(C)Oc2ncnc(N)c2NC1c1ccc([C@H]2CC[C@H](CS(N)(=O)=O)CC2)cc1 (some centres unmarked) [Example 2-221]
> 250 °C | > 100 | CC1(C)Oc2ncnc(N)c2NC1c1ccc([C@H]2CC[C@H](NS(N)(=O)=O)CC2)cc1 (some centres unmarked) [Example 2-222]
169 to 171 °C | > 100 | CC1(C)Oc2ncnc(N)c2N=C1c1ccc([C@H]2CC[C@H](CN3CCCCC3)CC2)cc1 [Example 2-224]
198 to 200 °C | > 100 | CC1(C)Oc2ncnc(N)c2N=C1c1ccc([C@H]2CC[C@H](CN3CCC(CCO)CC3)CC2)cc1 [Example 2-227]
119 to 120 °C | > 100 | CC1(C)Oc2ncnc(N)c2N=C1c1ccc([C@H]2CC[C@H](CN3CCC(Cc4ccccc4)CC3)CC2)cc1 [Example 2-228]
160 to 162 °C | > 100 | CC1(C)Oc2ncnc(N)c2N=C1c1ccc([C@H]2CC[C@H](CN3CCCC3)CC2)cc1 [Example 2-229]
171 to 172 °C | 10 to 100 | CC(C)(C)OC(=O)N1CCN(C[C@H]2CC[C@H](c3ccc(C4=Nc5c(N)ncnc5OC4(C)C)cc3)CC2)CC1 [Example 2-232]
224 to 229 °C | > 100 | CC(O)[C@H]1CC[C@H](c2ccc(C3=Nc4c(N)ncnc4OC3(C)C)cc2)CC1 (some centres unmarked) [Example 2-233]
226 to 230 °C | 10 to 100 | CC1(C)Oc2ncnc(N)c2N=C1c1ccc([C@H]2CC[C@H](NC(=O)CO)CC2)cc1 [Example 2-234]
